Reference: ChEMBL document CHEMBL1201862, “PubChem BioAssay data set” (2004)
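Exposure lasted 48 hours, with cells grown in 96-well plates and compounds tested at five concentrations. At the GI50, growth is halved.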 Activity calls are given as the source filed them. Cut-off read from the data, not from the text of the source: active = GI50 up to about 1.1 µM and inactive = higher.

What was measured:
Experiment in all cases: NCI-60 cell line screen, 48 h
IGROV-1 = tested on: IGROV-1
NCI-H226 = tested on: NCI-H226
SK-MEL-2 = tested on: SK-MEL-2
HOP-62 = tested on: HOP-62
OVCAR-8 = tested on: OVCAR-8
U-251 = tested on: U-251
A549 = tested on: A549
SK-OV-3 = tested on: SK-OV-3
SF-539 = tested on: SF-539
786-0 = tested on: 786-0
SF-268 = tested on: SF-268
SNB-75 = tested on: SNB-75
NCI-H23 = tested on: NCI-H23
K562 = tested on: K562
Malme-3M = tested on: Malme-3M
COLO 205 = tested on: COLO 205
UACC-62 = tested on: UACC-62
HL-60 = tested on: HL-60
SN12C = tested on: SN12C
HOP-92 = tested on: HOP-92

Measured: GI50

N#CC(=N)c1ncn(-c2ccc(N)cc2)c1N
inactive: IGROV-1 > 100 µM | NCI-H226 > 100 µM | SK-MEL-2 > 100 µM | HOP-62 > 100 µM | OVCAR-8 > 100 µM | U-251 > 100 µM | A549 > 100 µM | SK-OV-3 > 100 µM | SF-539 > 100 µM | 786-0 > 100 µM | SF-268 > 100 µM | SNB-75 > 100 µM | NCI-H23 > 100 µM | K562 > 100 µM | Malme-3M > 100 µM | COLO 205 > 100 µM | UACC-62 > 100 µM | HL-60 > 100 µM | SN12C > 100 µM

O=C(n1c(=O)n(-c2ccc([N+](=O)[O-])cc2)c(=O)n1C(=O)C(Cl)(Cl)Cl)C(Cl)(Cl)Cl
inactive: IGROV-1 > 100 µM | NCI-H226 > 100 µM | SK-MEL-2 > 100 µM | HOP-62 > 100 µM | OVCAR-8 > 100 µM | U-251 > 100 µM | A549 > 100 µM | SK-OV-3 > 100 µM | SF-539 > 100 µM | 786-0 > 100 µM | SF-268 > 100 µM | SNB-75 > 100 µM | NCI-H23 > 100 µM | K562 > 10 µM | Malme-3M > 100 µM | COLO 205 > 100 µM | UACC-62 > 100 µM | HL-60 > 100 µM | SN12C > 100 µM

CCOC(=O)C(Cc1ccc2c(c1)CCC2)Cc1ccc2c(c1)CCC2
inactive: IGROV-1 > 100 µM | SK-MEL-2 > 100 µM | HOP-62 > 100 µM | OVCAR-8 > 100 µM | U-251 51.4 µM | A549 > 100 µM | SK-OV-3 > 100 µM | SF-539 > 100 µM | 786-0 > 100 µM | HOP-92 > 100 µM | SF-268 > 100 µM | SNB-75 > 100 µM | NCI-H23 69 µM | K562 26.5 µM | Malme-3M > 100 µM | HL-60 25.9 µM

O=C(O)\C=C/C=C/C=C/C=C/C(=O)O
inactive: IGROV-1 > 100 µM | NCI-H226 > 100 µM | SK-MEL-2 > 100 µM | HOP-62 > 100 µM | OVCAR-8 > 100 µM | U-251 > 100 µM | A549 > 100 µM | SK-OV-3 > 100 µM | SF-539 > 100 µM | 786-0 > 100 µM | SF-268 > 100 µM | SNB-75 > 100 µM | NCI-H23 > 100 µM | K562 > 100 µM | Malme-3M > 100 µM | COLO 205 > 100 µM | UACC-62 90.4 µM | HL-60 > 100 µM | SN12C > 100 µM

Cc1c(-c2ccccc2)n(C)c2cn[nH]c(=O)c12
inactive: IGROV-1 70 µM | SK-MEL-2 22.7 µM | HOP-62 30 µM | OVCAR-8 39.2 µM | U-251 32.3 µM | A549 44.8 µM | SK-OV-3 27.1 µM | SF-539 45 µM | 786-0 23.3 µM | HOP-92 81.1 µM | SF-268 37.5 µM | NCI-H23 38.4 µM | K562 47.3 µM | Malme-3M 42.6 µM | COLO 205 17.1 µM | UACC-62 34.9 µM | HL-60 36.5 µM

COc1ccc(C2C(C#N)=C(S)N(C3OC(COC(C)=O)C(OC(C)=O)C(OC(C)=O)C3OC(C)=O)C(C)=C2C(C)=O)cc1 (stereo unspecified)
inactive: IGROV-1 > 100 µM | SK-MEL-2 > 100 µM | HOP-62 > 100 µM | U-251 > 100 µM | A549 70.6 µM | SK-OV-3 > 100 µM | SF-539 > 100 µM | 786-0 > 100 µM | HOP-92 30 µM | SF-268 > 100 µM | SNB-75 26.4 µM | NCI-H23 > 100 µM | K562 28.1 µM | Malme-3M > 100 µM | COLO 205 58.2 µM | UACC-62 57.5 µM | HL-60 46.3 µM | SN12C > 100 µM

C[C@@H]1OC(=O)C[C@H]2CC(=O)N(CCc3cn(S(=O)(=O)C(F)(F)F)c4ccccc34)C[C@@H]21
inactive: IGROV-1 > 100 µM | SK-MEL-2 > 100 µM | HOP-62 > 100 µM | OVCAR-8 > 100 µM | U-251 > 100 µM | A549 > 100 µM | SK-OV-3 > 100 µM | 786-0 > 100 µM | HOP-92 > 100 µM | SF-268 > 100 µM | SNB-75 > 100 µM | NCI-H23 > 100 µM | K562 > 100 µM | Malme-3M > 100 µM | COLO 205 > 100 µM | UACC-62 > 100 µM

O=C1/C(=C/c2ccccc2Cl)COc2ccc(Br)cc21
inactive: IGROV-1 > 100 µM | SK-MEL-2 82.8 µM | HOP-62 92.7 µM | OVCAR-8 56.9 µM | U-251 40.6 µM | A549 97.3 µM | SK-OV-3 27 µM | SF-539 52.8 µM | 786-0 37.4 µM | HOP-92 46.3 µM | SF-268 > 100 µM | SNB-75 30.4 µM | NCI-H23 > 100 µM | K562 3.82 µM | Malme-3M > 100 µM | COLO 205 73.8 µM | HL-60 18.5 µM
